Measurements taken from the supplement of paper PMC10307832.

Columns and labels:
Assay in all cases: relative viability (nuclei count vs DMSO), 5 days (fraction); higher = more cells survive
Crenolanib + OSI-027 = compound: CC1(COc2ccc3c(c2)ncn3-c2ccc3cccc(N4CCC(N)CC4)c3n2)COC1 [Crenolanib] + COc1cccc2cc(-c3nc([C@H]4CC[C@H](C(=O)O)CC4)n4ncnc(N)c34)[nH]c12 [OSI-027] (partner 0.5 µM)
Outline: (§1)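 Cells from lung cancer lines were seeded into 1536-well plates and, one day later, dosed by pin tool. Treatments were either a single drug or a fixed dose of an anchor drug with five library-drug doses (not always all listed) in √10 steps. After 5 days, nuclei were stained in a one-step fixation (final 0.05% Triton X-100, 1% formaldehyde, 1 ug/ml Hoechst) and counted on 4× images, and relative viability is the treated-to-vehicle nuclei ratio, as the median of duplicate plates.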

Crenolanib + Pictilisib = compound: CC1(COc2ccc3c(c2)ncn3-c2ccc3cccc(N4CCC(N)CC4)c3n2)COC1 [Crenolanib] + CS(=O)(=O)N1CCN(Cc2cc3nc(-c4cccc5[nH]ncc45)nc(N4CCOCC4)c3s2)CC1 [Pictilisib] (partner 1 µM)
Outline: as §1

Crenolanib + Linsitinib = compound: CC1(COc2ccc3c(c2)ncn3-c2ccc3cccc(N4CCC(N)CC4)c3n2)COC1 [Crenolanib] + C[C@]1(O)C[C@@H](c2nc(-c3ccc4ccc(-c5ccccc5)nc4c3)c3c(N)nccn32)C1 [Linsitinib] (partner 1 µM)
Outline: as §1

Crenolanib + Tozasertib = compound: CC1(COc2ccc3c(c2)ncn3-c2ccc3cccc(N4CCC(N)CC4)c3n2)COC1 [Crenolanib] + Cc1cc(Nc2cc(N3CCN(C)CC3)nc(Sc3ccc(NC(=O)C4CC4)cc3)n2)n[nH]1 [Tozasertib] (partner 0.1 µM)
Outline: as §1

Row | Cell Line | relative viability (Crenolanib + OSI-027; first compound 0.01 µM) | relative viability (Crenolanib + OSI-027; first compound 0.03162 µM) | relative viability (Crenolanib + OSI-027; first compound 0.1 µM) | relative viability (Crenolanib + OSI-027; first compound 0.3162 µM) | relative viability (Crenolanib + OSI-027; first compound 1 µM) | relative viability (Crenolanib + Pictilisib; first compound 0.01 µM) | relative viability (Crenolanib + Pictilisib; first compound 0.03162 µM) | relative viability (Crenolanib + Pictilisib; first compound 0.1 µM) | relative viability (Crenolanib + Pictilisib; first compound 0.3162 µM) | relative viability (Crenolanib + Pictilisib; first compound 1 µM) | relative viability (Crenolanib + Linsitinib; first compound 0.01 µM) | relative viability (Crenolanib + Linsitinib; first compound 0.03162 µM) | relative viability (Crenolanib + Linsitinib; first compound 0.1 µM) | relative viability (Crenolanib + Linsitinib; first compound 0.3162 µM) | relative viability (Crenolanib + Linsitinib; first compound 1 µM) | relative viability (Crenolanib + Tozasertib; first compound 0.01 µM) | relative viability (Crenolanib + Tozasertib; first compound 0.03162 µM) | relative viability (Crenolanib + Tozasertib; first compound 0.1 µM) | relative viability (Crenolanib + Tozasertib; first compound 0.3162 µM) | relative viability (Crenolanib + Tozasertib; first compound 1 µM)
1 | NCI-H2009 | 0.766 | 0.636 | 0.623 | 0.688 | 0.581 | 0.854 | 0.803 | 0.738 | 0.708 | 0.532 | 1.23 | 1.2 | 1.2 | 1.21 | 1.19 | 0.748 | 0.713 | 0.724 | 0.722 | 0.52
2 | NCI-H2023 | 0.466 | 0.426 | 0.378 | 0.434 | 0.292 | 0.264 | 0.288 | 0.233 | 0.278 | 0.205 | 0.669 | 0.678 | 0.626 | 0.801 | 0.621 | 0.471 | 0.368 | 0.333 | 0.371 | 0.25
3 | NCI-H2085 | 0.707 | 0.745 | 0.706 | 0.865 | 0.709 | 0.45 | 0.412 | 0.481 | 0.469 | 0.5 | 0.998 | 0.896 | 0.913 | 0.932 | 0.873 | 0.895 | 0.841 | 0.726 | 0.754 | 0.816
4 | NCI-H2087 | 0.664 | 0.642 | 0.471 | 0.546 | 0.467 | 0.804 | 0.918 | 0.665 | 0.761 | 0.861 | 1.02 | 1.13 | 0.917 | 1.23 | 1.02 | 0.219 | 0.277 | 0.239 | 0.262 | 0.254
5 | NCI-H2126 | 0.727 | 0.691 | 0.751 | 0.721 | 0.644 | 0.504 | 0.509 | 0.51 | 0.47 | 0.476 | 0.693 | 0.717 | 0.745 | 0.759 | 0.788 | 0.87 | 0.909 | 0.807 | 0.699 | 0.745
6 | NCI-H2228 | 0.6 | 0.495 | 0.513 | 0.687 | 0.578 | 0.372 | 0.397 | 0.272 | 0.491 | 0.361 | 0.762 | 0.591 | 0.565 | 0.691 | 0.729 | 0.291 | 0.279 | 0.236 | 0.223 | 0.256
7 | NCI-H2347 | 0.326 | – | – | 0.482 | 0.427 | 0.55 | 0.625 | 0.464 | 0.845 | 0.561 | 0.972 | 1.02 | 0.736 | 1.04 | 0.873 | 0.646 | – | – | 0.454 | 0.48
8 | NCI-H2405 | 0.672 | 0.64 | – | 0.671 | 0.655 | 0.473 | 0.417 | 0.285 | 0.347 | 0.375 | 1.15 | 0.923 | 0.661 | 0.794 | 0.859 | 0.859 | 0.737 | – | 0.502 | 0.691
9 | NCI-H3122 | 1.01 | 0.974 | 0.962 | 1.17 | 1.06 | 0.549 | 0.497 | 0.561 | 0.732 | 0.738 | 1.03 | 1 | 0.994 | 1.07 | 1.05 | 0.406 | 0.399 | 0.373 | 0.334 | 0.452
10 | PC-3 [JPC-3] | 0.804 | 0.725 | 0.803 | 0.792 | 0.719 | 0.736 | 0.635 | 0.746 | 0.695 | 0.703 | 0.965 | 0.956 | 0.899 | 0.988 | 0.887 | 0.889 | 0.856 | 0.81 | 0.902 | 0.87
11 | PC-14 | 0.883 | 0.776 | 0.764 | 0.816 | 0.617 | 0.661 | 0.787 | 0.588 | 0.744 | 0.65 | 1.07 | 0.93 | 1.03 | 1.05 | 0.93 | 0.697 | 0.573 | 0.554 | 0.533 | 0.413
12 | RERF-LC-KJ | 0.583 | 0.582 | 0.574 | 0.648 | 0.448 | 0.548 | 0.591 | 0.538 | 0.621 | 0.687 | 0.851 | 0.937 | 0.905 | 0.919 | 0.944 | 0.532 | 0.469 | 0.527 | 0.487 | 0.461
13 | SK-LU-1 | 0.386 | 0.385 | 0.218 | 0.372 | 0.349 | 0.609 | 0.494 | 0.432 | 0.62 | 0.611 | 1.09 | 0.649 | 0.869 | 1.16 | 0.809 | 0.395 | 0.369 | 0.342 | 0.349 | 0.34
14 | SK-MES-1 | 0.598 | 0.657 | 0.508 | 0.581 | 0.599 | 0.337 | 0.33 | 0.375 | 0.385 | 0.377 | 1.09 | 1.13 | 0.945 | 1.13 | 1.04 | 0.899 | 0.832 | 0.847 | 0.912 | 0.746
15 | SW 1573 | 0.667 | 0.664 | 0.51 | 0.493 | 0.578 | 0.368 | 0.521 | 0.451 | 0.656 | 0.598 | 0.873 | 0.841 | 0.704 | 0.96 | 0.81 | 0.175 | 0.198 | 0.137 | 0.212 | 0.174
